Measurements as given in patent US20010034454A1, “Description anti-mitotic agents which inhibit tubulin polymerization” (BYLOR UNIVERSITY AND ARIZONA DESEASE CONTROL RESEARCH …, priority 1998, published 2001).
pIC50: −log10 of the molar value. ≈ marks a conversion by molar mass, not a printed value. Like-named read-outs stand apart in the source and are kept apart here.

Assays:
tubulin [1] = tested on: T1, tubulin; assay: Tubulin polymerization assay; type: biochemical, bovine
T1 construct: Purified tubulin is obtained from bovine brain cells as described in Hamel and Lin
Experimental: The ability of the various above described compounds to inhibit tubulin polymerization can be determined by in vitro assay. A suitable assay system is that described by Bai et al. A method for purifying tubulin from bovine brain cells is described by Hamel and Lin.
IC50 values for tubulin polymerization were determined according to the procedure described in Bai et al. Purified tubulin is obtained from bovine brain cells as described in Hamel and Lin. Various amounts of inhibitor were preincubated for 15 minutes at 37° C. with purified tubulin. After the incubation period, the reaction was cooled and GTP was added to induce tubulin polymerization. Polymerization was then monitored in a Gilford spectrophotometer at 350 nm. The final reaction mixtures (0.25 ml) contained 1.5 mg/ml tubulin, 0.6 mg/ml microtubule-associated proteins (MAPs), 0.5 mM GTP, 0.5 mM MgCl2, 4% DMSO and 0.1 M 4-morpholineethanesulfonate buffer (MES, pH 6.4). […]

tubulin [2] = assay: Inhibition of binding of [3H]colchicine to tubulin; settings: comparator, concentration not given
Excerpt: A measurement of each compound's tubulin affinity may also be determined through the compound's ability to inhibit colchichine-tubulin binding. A suitable assay is that described by Kang et al., involving the use of commercially available tritiated colchicine. Decreases in the amount of [^3H]colchicine-tubulin interaction due to the competitive binding of one of the novel inhibitors of this invention may be measured by autoradiography or scintillation counting.

P388 leukemia cells = assay: Cytotoxic assay with P388 leukemia cells; type: cell-based, mouse
Excerpt: The tubulin polymerization compounds can also be tested for their ability to inhibit tumor cell growth.

NCI-H460 = assay: Growth inhibitory activity, human cancer cell line NCI-H460 (SRB); type: cell-based; settings: Lung-NSC NCI-H460
Experimental: (§1) The assay used is described in Monks et al. Briefly, the cell suspensions, diluted according to tho particular cell type and the expected target cell density (5,000-40,000 cells per well based on cell growth characteristics), were added by pipet (100 μl) to 96-well microtiter plates. Inoculates were allowed a preincubation time of 24-28 hours at 37° C. for stabilization. Incubation with the inhibitor compounds lasted for 48 hours in 5% CO2 atmosphere and 100% humidity. Determination of cell growth was done by in situ fixation of cells, followed by staining with a protein-binding dye, sulforhodamine B (SRB), which binds to the basic amino acids of cellular macromolecules. The solubilized stain was measured spectrophotometrically.

BXPC-3 = assay: Human cancer cell line studies, BXPC-3; type: cell-based; settings: Pancreas adn BXPC-3
Experimental: as §1

SK-N-SH = assay: Human cancer cell line studies, SK-N-SH; type: cell-based; settings: Homo sapiens; Neuroblast SK-N-SH; read-out: GI50
Experimental: as §1

SW1736 = assay: Human cancer cell line studies, SW1736; type: cell-based; settings: Homo sapiens, SW-1736; Thyroid ca SW1736; read-out: GI50
Experimental: as §1

FADU = assay: Human cancer cell line studies, FADU; type: cell-based; settings: Pharynx-sqam FADU
Experimental: as §1

DU-145 = assay: Human cancer cell line studies, DU-145; type: cell-based; settings: Prostate DU-145
Experimental: as §1

RPMI-7951 = assay: Human cancer cell line studies, RPMI-7951; type: cell-based; settings: Melanoma RPMI-7951
Experimental: as §1, with “3-(3′,4′,5′-Trimethoxybenzoyl)-2-(4′-methoxyphenyl)-6-methoxybenzo[b]-thiophene was evaluated in terms of growth inhibitory activity against several human cancer cell lines, including ovarian CNS, renal, lung, colon and melanoma lines. The assay” for “The assay”

U251 = assay: Human cancer cell line studies, U251; type: cell-based; settings: CNS U251
Experimental: as §1, with “3-(3′,4′,5′-Trimethoxybenzoyl)-2-(4′-methoxyphenyl)-6-methoxybenzo[b]-thiophene was evaluated in terms of growth inhibitory activity against several human cancer cell lines, including ovarian CNS, renal, lung, colon and melanoma lines. The assay” for “The assay”

[3] = purified tubulin […], GTP-induced, 350 nm, final steady-state number for compounds other than 1A and 10A, read-out: IC50 for inhibition of tubulin polymerization
[4] = P388 mouse leukemia, dosage required to inhibit 50% of cell growth, read-out: ED50 (the source's name)
[5] = Mus musculus, P388, read-out: ED50
[6] = Homo sapiens, U-251, read-out: GI50
[7] = P388 mouse leukemia, dosage required to inhibit 50% of cell growth

SMILES | IC50 (P388 leukemia cells; [4]) | GI50 (NCI-H460; Homo sapiens, read-out: GI50) | GI50 (BXPC-3; Homo sapiens, read-out: GI50) | GI50 (FADU; Homo sapiens, read-out: GI50) | GI50 (DU-145; Homo sapiens, read-out: GI50) | GI50 (RPMI-7951; Homo sapiens, read-out: GI50) | GI50 (U251; [6]) | further results
COc1ccc(/C=C\c2cc(OC)c(OC)c(OC)c2)cc1O [Combretastatin A-4, reference compound] |  |  |  |  |  |  |  | pIC50 (tubulin [1]; read-out: 50% inhibition of the maximum tubulin assembly rate, inhibition of rate rather than steady state): […]; inhibition of the binding of [3H]colchicine to tubulin (tubulin [2]): total inhibition
COc1ccc(-c2sc3cc(OC)ccc3c2C(=O)c2ccc(OC)c(OC)c2)cc1 [Compound 4A, 3-(3′,4′-dimethoxybenzoyl)-2-(4′-methoxyphenyl)-6-methoxybenzo[b]thiophene] | > 10 µg/mL | 4.6 µg/mL (≈ 10.6 µM) | 5.2 µg/mL (≈ 12 µM) | 4.7 µg/mL (≈ 10.8 µM) | > 10 µg/mL |  |  | pIC50 (tubulin [1]; [3]): < 4.40; GI50 (SK-N-SH): 3.2 µg/mL (≈ 7.36 µM); GI50 (SW1736): > 10 µg/mL
COc1ccc(/C=C\c2cc(OC)c(OC)c(OC)c2)cc1N=[N+]=[N-] [Compound 34E, (Z)-1-(3′azido-4′-methoxyphenyl)-2-(3″,4″,5″-trimethoxyphenyl)ethene] |  | 0.0056 µg/mL (≈ 0.0164 µM) | 0.005 µg/mL (≈ 0.0146 µM) | 0.0076 µg/mL (≈ 0.0223 µM) | 0.0091 µg/mL (≈ 0.0267 µM) |  |  | pIC50 (tubulin [1]; [3]): 5.89; IC50 (P388 leukemia cells; [5]): 0.0384 µg/mL (≈ 0.112 µM); GI50 (SK-N-SH): 0.0033 µg/mL (≈ 0.00967 µM); GI50 (SW1736): 1.2 µg/mL (≈ 3.52 µM)
COc1ccc(-c2sc3cc(OC)ccc3c2C(=O)Cc2ccccc2)cc1 [Compound 20A, 3-(phenylacetyl)-2-(4′-methoxyphenyl)-6-methoxybenzo[b]thiophene] | > 10 µg/mL | > 10 µg/mL | > 10 µg/mL | 9.2 µg/mL (≈ 23.7 µM) | > 10 µg/mL | > 10 µg/mL | > 10 µg/mL | 
COc1ccc(-c2sc3cc(OC)ccc3c2C(=O)c2cc(OC)c(OC)c(OC)c2)cc1 [Compound 1A, 3-(3′,4′,5′-trimethoxybenzoyl)-2-(4′-methoxyphenyl)-6-methoxybenzo[b]thiophene] |  |  |  |  |  |  |  | melting point: 131 to 133 °C
COc1ccc(-c2sc3cc(OC)ccc3c2Oc2cc(OC)c(OC)c(OC)c2)cc1 [Compound 23B, 3-(3′,4′,5′-trimethoxyphenoxy)-2-(4′-methoxyphenyl)-6-methoxybenzo[b]thiophene] |  | 0.31 µg/mL (≈ 0.685 µM) | 0.23 µg/mL (≈ 0.508 µM) | 0.098 µg/mL (≈ 0.217 µM) | 0.42 µg/mL (≈ 0.928 µM) |  |  | pIC50 (tubulin [1]; [3]): 5.85; IC50 (P388 leukemia cells; [5]): 3.09 µg/mL (≈ 6.83 µM); GI50 (SK-N-SH): 0.063 µg/mL (≈ 0.139 µM); GI50 (SW1736): 0.73 µg/mL (≈ 1.61 µM)
COc1ccc(C(=O)c2c(-c3ccc(OC)cc3)sc3cc(OC)ccc23)cc1 [Compound 5A, 3-(4′-methoxybenzoyl)-2-(4′-methoxyphenyl)-6-methoxybenzo[b]thiophene] | > 100 µg/mL | > 10 µg/mL | 8.9 µg/mL (≈ 22 µM) | > 10 µg/mL | > 10 µg/mL | > 10 µg/mL | > 10 µg/mL | 
COc1ccc(-c2sc3cc(OC)ccc3c2C(=O)Cc2cc(OC)c(OC)c(OC)c2)cc1 [Compound 21A] |  |  |  |  |  |  |  | ED50 (P388 leukemia cells; [7]): >10 µg/mL; GI50 (NCI-H460): >10 µg/mL; GI50 (BXPC-3): 9.8 µg/mL (≈ 20.5 µM); GI50 (FADU): 7.9 µg/mL (≈ 16.5 µM); GI50 (DU-145): >10 µg/mL; GI50 (RPMI-7951): >10 µg/mL; GI50 (U251): >10 µg/mL
CCOc1ccc(-c2sc3cc(OCC)ccc3c2C(=O)c2cc(OCC)c(OCC)c(OCC)c2)cc1 [Compound 9A, 3-(3′,4′,5′-triethoxybenzoyl)-2-(4′-ethoxyphenyl)-6-ethoxybenzo[b]thiophene] | > 10 µg/mL | > 10 µg/mL | > 10 µg/mL | > 10 µg/mL | > 10 µg/mL | > 10 µg/mL | > 10 µg/mL | 
COc1ccc(-c2sc3cc(OC)ccc3c2C(=O)CCc2cc(OC)c(OC)c(OC)c2)cc1 [Compound 8A, 3-[3′-(3′,4′,5′-trimethoxyphenyl)propionyl]-2-(4′-methoxyphenyl)-6-methoxybenzo[b]thiophene] |  |  |  |  |  |  |  | ED50 (P388 leukemia cells; [7]): >10 µg/mL; GI50 (NCI-H460): 3.8 µg/mL (≈ 7.71 µM); GI50 (BXPC-3): >10 µg/mL; GI50 (FADU): 9.1 µg/mL (≈ 18.5 µM); GI50 (DU-145): >10 µg/mL; GI50 (RPMI-7951): >10 µg/mL; GI50 (U251): 4.5 µg/mL (≈ 9.14 µM)
CCOc1cc(C(=O)c2c(-c3ccc(OC)cc3)sc3cc(OC)ccc23)cc(OCC)c1OCC [Compound 7A, 3-(3′,4′,5′-triethoxybenzoyl)-2-(4′-methoxyphenyl)-6-methoxybenzo[b]thiophene] | > 100 µg/mL | > 10 µg/mL | > 10 µg/mL | > 10 µg/mL | > 10 µg/mL | > 10 µg/mL | > 10 µg/mL | 
CCOc1ccc(C(=O)c2c(-c3ccc(OC)cc3)sc3cc(OC)ccc23)cc1 [Compound 6A, 3-(4′-ethoxybenzoyl)-2-(4′-methoxyphenyl)-6-methoxybenzo[b]thiophene] | > 100 µg/mL | 2.4 µg/mL (≈ 5.73 µM) | 0.65 µg/mL (≈ 1.55 µM) | 0.48 µg/mL (≈ 1.15 µM) | 3.9 µg/mL (≈ 9.32 µM) | 3.2 µg/mL (≈ 7.65 µM) | 0.43 µg/mL (≈ 1.03 µM) | 
